Data on 32 molecules can be found in patent publication US12637413B2, “Fatty acid amide hydrolase (FAAH) cleavable prodrugs of thyromimetics and combination with peripherally restricted FAAH inhibitors” (Autobahn Therapeutics, Inc., priority 2021, dated 2026).

Each structure is given as a SMILES string.

The test addresses T1, recombinant human FAAH (rhFAAH) (Homo sapiens, UniProt O00519).
T1 construct: purchased Cayman Chemical (Ann Arbor, MI, USA)
T1 sequence (O00519 1-579): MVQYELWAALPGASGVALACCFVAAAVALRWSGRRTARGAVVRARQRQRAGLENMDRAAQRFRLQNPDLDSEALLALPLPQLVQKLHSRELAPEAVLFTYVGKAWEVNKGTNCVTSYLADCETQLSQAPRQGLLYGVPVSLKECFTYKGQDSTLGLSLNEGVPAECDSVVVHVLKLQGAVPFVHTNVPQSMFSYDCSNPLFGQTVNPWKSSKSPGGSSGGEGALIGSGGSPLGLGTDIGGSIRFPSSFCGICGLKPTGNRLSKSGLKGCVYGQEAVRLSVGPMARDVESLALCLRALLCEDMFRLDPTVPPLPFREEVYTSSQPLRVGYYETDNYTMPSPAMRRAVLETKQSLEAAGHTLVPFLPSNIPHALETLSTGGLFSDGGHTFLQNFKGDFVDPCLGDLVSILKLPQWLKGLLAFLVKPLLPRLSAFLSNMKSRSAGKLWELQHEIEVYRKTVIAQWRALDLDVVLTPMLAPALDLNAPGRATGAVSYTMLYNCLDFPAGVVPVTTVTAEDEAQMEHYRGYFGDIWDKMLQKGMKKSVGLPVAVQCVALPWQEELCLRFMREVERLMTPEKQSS
The test can be described thus: FAAH substrate evaluation (acid metabolite formation). It is filed as biochemical. The following applies: observed rate constant for acid metabolite formation; 0.5 ng/μL rhFAAH, 1 μM test compound, room temperature, 0-60 minutes. How it is done:
Purified recombinant human FAAH (rhFAAH) was purchased from Cayman Chemical (Ann Arbor, MI, USA). The total volume for each incubation was 400 μL containing a final 0.5 ng/μL rhFAAH, 1 μM test compound, 1.25% ethanol or 1 μM PF-3845 (FAAH inhibitor), and 0.1% bovine serum albumin in Tris-EDTA buffer at pH 8.0). The positive control was LL-341001. The incubation was conducted at the room temperature. At 0, 5, 15, 30 and 60 minutes, an aliquot of 30 μL reaction mixtures was removed and mixed with 300 μL acetonitrile containing 5 ng/mL terfenadine and 10 ng/mL tolbutamide as internal standards to quench the reaction. The resulting mixture was centrifuged at 4000 rpm, 4° C. for 15 minutes, and 100 μL supernatant was ready for LC-MS/MS analysis to measure the formation of acid metabolite.
Acquity Ultra Performance LC system from Waters was used for sample analysis. The chromatography was performed on a reverse phase Kinetex 2.6 μm C18 column, 2.1×30 mm, 100 Å. The mobile phase A comprised of 0.1% formic acid in water and mobile phase B comprised of 0.1% formic acid in acetonitrile with a 2-min run time at the flow rate of 0.8 mL/min for the acid metabolite from positive control or a 1.5 min run time at the flow rate of 0.9 mL/min for the acid metabolite of test compounds. The mass spectrometer (API-5500 and API Q Trap 4000 Applied Biosystems/MDS SCIEX Instruments, Framingham, MA, USA) was operated under ESI positive or negative ion MRM mode.
The formation of acid metabolite was monitored and quantified using one calibration point of 1 μM. The observed rate constant (ke) for the acid metabolite formation was calculated by plotting the metabolite concentration versus time of incubation with the slope being ke and is shown in Table 1.

As to `CONC(=O)COc1cc(Cl)c(Cc2ccc(O)c(C(C)C)c2)c(Cl)c1` [Compound 28], the ke entry is “A (ke is more than or equal to 0.1)”.
Consider `CC(C)c1cc(Cc2c(Cl)cc(OCC(=O)N(C)CC(F)(F)F)cc2Cl)ccc1O` [Compound 131, 2-(3,5-dichloro-4-(4-hydroxy-3-isopropylbenzyl)phenoxy)-N-methyl-N-(2,2,2-trifluoroethyl)acetamide], for which the ke entry was “B (ke is less than 0.1 and more than 0)”.
With `CC(C)c1cc(Cc2c(Cl)cc(OCC(=O)N[C@H](C)CO)cc2Cl)ccc1O` [Compound 9] the entry was “A (ke is more than or equal to 0.1)”; with `CC(C)c1cc(Cc2c(Cl)cc(OCC(=O)N3CCOCC3)cc2Cl)ccc1O` [Compound 133, 2-(3,5-dichloro-4-(4-hydroxy-3-isopropylbenzyl)phenoxy)-1-morpholinoethan-1-one], “A (ke is more than or equal to 0.1)”.
With `CC(C)c1cc(Cc2c(Cl)cc(OCC(=O)NO)cc2Cl)ccc1O` [Compound 26], the ke result is “A (ke is more than or equal to 0.1)”.
As to `CC(C)c1c(O)ccc(Cc2c(Cl)cc(OCC(=O)NN(C)C)cc2Cl)c1F` [Compound 45], the ke result is reported as “A (ke is more than or equal to 0.1)”.
Consider `CNC(=O)COc1cc(Cl)c(Cc2ccc(O)c(C(C)C)c2F)c(Cl)c1F` [Compound 39], for which the ke result is “B (ke is less than 0.1 and more than 0)”.
Consider `CC(C)c1cc(Cc2c(Cl)cc(OCC(=O)NCCc3ccc(O)c(O)c3)cc2Cl)ccc1O` [Compound 24], for which the ke result was “B (ke is less than 0.1 and more than 0)”.
Consider `CC(C)c1cc(Cc2c(Cl)cc(OCC(=O)NCC(F)F)cc2Cl)ccc1O` [Compound 15], for which the ke result is “A (ke is more than or equal to 0.1)”.
On to `CC(C)c1cc(Cc2c(Cl)cc(OCC(=O)NC(CO)CO)cc2Cl)ccc1O` [Compound 11], for which the ke result is “B (ke is less than 0.1 and more than 0)”.
`CC(C)c1cc(Cc2c(Cl)cc(OCC(=O)NCCCF)cc2Cl)ccc1O` [Compound 112, 2-(3,5-dichloro-4-(4-hydroxy-3-isopropylbenzyl)phenoxy)-N-(3-fluoropropyl)acetamide]: the ke result was “A (ke is more than or equal to 0.1)”.
In the case of `CCCN(C)C(=O)COc1cc(Cl)c(Cc2ccc(O)c(C(C)C)c2)c(Cl)c1` [Compound 129, 2-(3,5-dichloro-4-(4-hydroxy-3-isopropylbenzyl)phenoxy)-N-methyl-N-propylacetamide], the ke entry was “B (ke is less than 0.1 and more than 0)”.
With `CC(C)CNC(=O)COc1cc(Cl)c(Cc2ccc(O)c(C(C)C)c2)c(Cl)c1` [Compound 121, 2-(3,5-dichloro-4-(4-hydroxy-3-isopropylbenzyl)phenoxy)-N-isobutylacetamide], the ke entry was “C (ke is 0)”.
In the case of `CC(C)CN(C)C(=O)COc1cc(Cl)c(Cc2ccc(O)c(C(C)C)c2)c(Cl)c1` [Compound 120, 2-(3,5-dichloro-4-(4-hydroxy-3-isopropylbenzyl)phenoxy)-N-isobutyl-N-methylacetamide] it was “C (ke is 0)”.
With `CC(C)c1cc(Cc2c(Cl)cc(OCC(=O)N(C)N(C)C)cc2Cl)ccc1O` [Compound 108, 2-(3,5-dichloro-4-(4-hydroxy-3-isopropylbenzyl)phenoxy)-N,N′,N′-trimethylacetohydrazide] the entry was “B (ke is less than 0.1 and more than 0)”.
For `CC(C)c1cc(Cc2c(Cl)cc(OCC(=O)Nc3cccnn3)cc2Cl)ccc1O` [Compound 104, 2-(3,5-dichloro-4-(4-hydroxy-3-isopropylbenzyl)phenoxy)-N-(pyridazin-3-yl)acetamide], the ke result is reported as “A (ke is more than or equal to 0.1)”.
Regarding `CNC(=O)COc1cc(Cl)c(Cc2ccc(O)c(C(C)C)c2)c(Cl)c1F` [Compound 37], the ke result was “B (ke is less than 0.1 and more than 0)”.
Consider `COc1ccc(NC(=O)COc2cc(Cl)c(Cc3ccc(O)c(C(C)C)c3)c(Cl)c2)nn1` [Compound 113, 2-(3,5-dichloro-4-(4-hydroxy-3-isopropylbenzyl)phenoxy)-N-(6-methoxypyridazin-3-yl)acetamide], for which the ke entry was “A (ke is more than or equal to 0.1)”.
For `CC(C)c1cc(Cc2c(Cl)cc(OCC(=O)N3CCC3)cc2Cl)ccc1O` [Compound 118, 1-(azetidin-1-yl)-2-(3,5-dichloro-4-(4-hydroxy-3-isopropylbenzyl)phenoxy)ethan-1-one], the ke entry was “B (ke is less than 0.1 and more than 0)”.
With `CC(C)c1cc(Cc2c(Cl)cc(OCC(=O)Nc3ccncc3)cc2Cl)ccc1O` [Compound 115, 2-(3,5-dichloro-4-(4-hydroxy-3-isopropylbenzyl)phenoxy)-N-(pyridin-4-yl)acetamide], the ke entry was “A (ke is more than or equal to 0.1)”.
As for `CC(C)c1cc(Cc2c(Cl)cc(OCC(=O)N(C)C(C)C)cc2Cl)ccc1O` [Compound 122, 2-(3,5-dichloro-4-(4-hydroxy-3-isopropylbenzyl)phenoxy)-N-isopropyl-N-methylacetamide], the ke entry was “B (ke is less than 0.1 and more than 0)”.
As for `C=CCN(C)C(=O)COc1cc(Cl)c(Cc2ccc(O)c(C(C)C)c2)c(Cl)c1` [Compound 128, N-allyl-2-(3,5-dichloro-4-(4-hydroxy-3-isopropylbenzyl)phenoxy)-N-methylacetamide], the ke entry was “B (ke is less than 0.1 and more than 0)”.
With `CC(C)c1cc(Cc2c(Cl)cc(OCC(=O)NCC(F)(F)F)cc2Cl)ccc1O` [Compound 16] the entry was “A (ke is more than or equal to 0.1)”; with `CC(C)c1cc(Cc2c(Cl)cc(OCC(=O)NCCc3ccccc3)cc2Cl)ccc1O` [Compound 23], “B (ke is less than 0.1 and more than 0)”; with `CC(C)c1c(O)ccc(Cc2c(Cl)cc(OCC(N)=O)cc2Cl)c1F` [Compound 35], “A (ke is more than or equal to 0.1)”.
`CC(C)c1c(O)ccc(Cc2c(Cl)cc(OCC(=O)NCCF)cc2Cl)c1F` [Compound 36]: the ke entry is listed as “A (ke is more than or equal to 0.1)”.
With `Cc1noc(NC(=O)COc2cc(Cl)c(Cc3ccc(O)c(C(C)C)c3)c(Cl)c2)c1C` [Compound 103, 2-(3,5-dichloro-4-(4-hydroxy-3-isopropylbenzyl)phenoxy)-N-(3,4-dimethylisoxazol-5-yl)acetamide], the ke entry was “A (ke is more than or equal to 0.1)”.
For `CC(C)NC(=O)COc1cc(Cl)c(Cc2ccc(O)c(C(C)C)c2)c(Cl)c1` [Compound 126, 2-(3,5-dichloro-4-(4-hydroxy-3-isopropylbenzyl)phenoxy)-N-isopropylacetamide], the ke result is listed as “A (ke is more than or equal to 0.1)”.
Take `CC(C)c1cc(Cc2c(Cl)cc(OCC(=O)NC3CC3)cc2Cl)ccc1O` [Compound 17]: the ke result is reported as “A (ke is more than or equal to 0.1)”.
With `COc1ccc(NC(=O)COc2cc(Cl)c(Cc3ccc(O)c(C(C)C)c3)c(Cl)c2)cn1` [Compound 101, 2-(3,5-dichloro-4-{[4-hydroxy-3-(propan-2-yl)phenyl]methyl}phenoxy)-N-(6-methoxypyridin-3-yl)acetamide], the ke result is “A (ke is more than or equal to 0.1)”.
With `CC#CCN(C)C(=O)COc1cc(Cl)c(Cc2ccc(O)c(C(C)C)c2)c(Cl)c1` [Compound 107, N-(but-2-yn-1-yl)-2-(3,5-dichloro-4-(4-hydroxy-3-isopropylbenzyl)phenoxy)-N-methylacetamide], the ke entry is “B (ke is less than 0.1 and more than 0)”.
With `CCN(C)C(=O)COc1cc(Cl)c(Cc2ccc(O)c(C(C)C)c2)c(Cl)c1` [Compound 130, 2-(3,5-dichloro-4-(4-hydroxy-3-isopropylbenzyl)phenoxy)-N-ethyl-N-methylacetamide] the entry was “B (ke is less than 0.1 and more than 0)”.
